# Where two headings read alike, the source gives them in different places.
# Key:
# [1] = system: IL-23 stimulated Kit225 T cells (STAT-dependent luciferase reporter); test: Kit225 T cell assay, IL-23-stimulated STAT-dependent luciferase reporter; assay type: cell-based, human
# Description: (§1) Kit225 T cells with a stably-integrated STAT-dependent luciferase reporter were plated in RPMI (Gibco) containing 10% heat-inactivated FBS (Gibco) and 100 U/mL PenStrep (Gibco). The cells were then stimulated with either 20 ng/mL human recombinant IL-23 or 200 U/mL human recombinant IFNα (PBL InterferonSource) for 5-6 hours. Luciferase expression was measured using the STEADY-GLO® Luciferase Assay System (Promega) according to the manufacturer's instructions. Inhibition data were calculated by comparison to no inhibitor control wells for 0% inhibition and non-stimulated control wells for 100% inhibition.
# [2] = biological target: His-tagged protein corresponding to amino acids 575-869 of human Tyk2 (Homo sapiens (Human), UniProt P29597); test: Probe displacement assay (scintillation proximity, radiolabeled probe); assay type: binding; conditions: 2.5 nM Tyk2 (575-869), 40 nM [3H] probe, 30 minutes at room temperature
# Description: The probe displacement assay is conducted as follows: In a […], test compounds along with recombinantly expressed His-tagged protein corresponding to amino acids 575-869 of human Tyk2 (sequence shown below) at 2.5 nM, 40 nM ((R)—N-(1-(3-(8-methyl-5-(methylamino)-8H-imidazo[4,5-d]thiazolo[5,4-b]pyridin-2-yl)phenyl)ethyl)-2-([^3H]methylsulfonyl)benzamide) (preparation described below) and 80 μg/mL Copper His-Tag scintillation proximity assay beads (Perkin Elmer, Catalog #RPNQ0095) in 50 mM HEPES, pH 7.5, containing 100 μg/mL bovine serum albumin and 5% DMSO were incubated for 30 minutes at room temperature.
# Protein Sequence of recombinant Hig-tagged Tyk2 (575-869):
# The preparation of radiolabeled probe, (R)—N-(1-(3-(8-methyl-5-(methylamino)-8H-imidazo[4,5-d]thiazolo[5,4-b]pyridin-2-yl)phenyl)ethyl)-2-([^3H]methylsulfonyl)benzamide, was performed as described below.
# [3] = system: IFNα stimulated Kit225 T cells (STAT-dependent luciferase reporter); test: Kit225 T cell assay, IFNα-stimulated STAT-dependent luciferase reporter; assay type: cell-based, human
# Description: as §1
# [4] = 20 ng/mL human recombinant IL-23, 5-6 hours, read-out: IL-23 Kit225 Reporter (IC50)
# [5] = 200 U/mL human recombinant IFNα, 5-6 hours, read-out: IFNα Kit225 Reporter (IC50)
# [6] = KIT225, 20 ng/mL human recombinant IL-23, 5-6 hours, read-out: IL-23 Kit225 Reporter (IC50)
# [7] = KIT225, 200 U/mL human recombinant IFNα, 5-6 hours, read-out: IFNα Kit225 Reporter (IC50)
# His-tagged protein corresponding to amino acids 575-869 of human Tyk2, sequence (P29597 other isoform, or with tags, fused parts or gaps): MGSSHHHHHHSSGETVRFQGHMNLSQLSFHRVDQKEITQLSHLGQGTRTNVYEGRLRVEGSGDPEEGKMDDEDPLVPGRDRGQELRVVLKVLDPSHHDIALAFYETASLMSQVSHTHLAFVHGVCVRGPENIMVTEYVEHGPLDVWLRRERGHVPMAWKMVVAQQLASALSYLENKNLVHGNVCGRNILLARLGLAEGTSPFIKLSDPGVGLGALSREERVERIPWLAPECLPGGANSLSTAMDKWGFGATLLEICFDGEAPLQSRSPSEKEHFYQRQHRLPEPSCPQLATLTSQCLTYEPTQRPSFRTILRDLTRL
"IC50 [1, 4]","IC50 [3, 5]",Compound,other results
6.59 nM,4.3 nM,CNC(=O)c1nnc(Nc2cc(C)c(F)cn2)cc1Nc1cccc(-c2n[nH]c(C)n2)c1OC [Example 142],EC50 [2]: 0.00695 µM
170 nM,50 nM,CNC(=O)c1nnc(Nc2cc(C)n(C)n2)cc1Nc1cccc(-c2cnn(C)c2)c1OC [Example 85],EC50 [2]: 0.00736 µM
30 nM,8.59 nM,CNC(=O)c1nnc(Nc2ccncn2)cc1Nc1cccc(-c2ncn(C)n2)c1OC [Example 94],EC50 [2]: 0.00172 µM
170 nM,430 nM,CNC(=O)c1nnc(NC(=O)C2CC2)cc1Nc1ccccc1OC [Example 125],EC50 [2]: 0.11 µM
630 nM,410 nM,CNC(=O)c1nnc(NC(=O)C2CC2)cc1Nc1cccc(-c2cc(C)no2)c1OC [Example 194],EC50 [2]: 0.08 µM
40 nM,20 nM,CNC(=O)c1nnc(NC(=O)C2CC2)cc1Nc1cccc(-c2ncn(CC(F)F)n2)c1OC [Example 176],EC50 [2]: 0.00635 µM
30 nM,30 nM,CNC(=O)c1nnc(Nc2ccccn2)cc1Nc1cccc(-c2nnc(C)s2)c1OC [Example 155],EC50 [2]: 0.00713 µM
40 nM,20 nM,CNC(=O)c1nnc(Nc2ccccn2)cc1Nc1ccccc1S(C)(=O)=O [Example 16],EC50 [2]: 0.00657 µM
40 nM,30 nM,CNC(=O)c1nnc(Nc2ccc(CO)cn2)cc1Nc1cccc(-c2ncn(C)n2)c1OC [Example 102],EC50 [2]: 0.00159 µM
40 nM,50 nM,CNC(=O)c1nnc(Nc2cc(C)c(F)cn2)cc1Nc1ccccc1S(C)(=O)=O [Example 15],
20 nM,5.15 nM,CNC(=O)c1nnc(Nc2ccc(F)cn2)cc1Nc1cccc(-c2cnccn2)c1OC [Example 74],
20 nM,6.04 nM,CNC(=O)c1nnc(NC(=O)C2CC2)cc1Nc1cccc(-c2cnn(C)n2)c1OC [Example 136],
7.01 nM,5.45 nM,CNC(=O)c1nnc(Nc2cc(C)c(F)cn2)cc1Nc1cccc(-c2ncn(C)n2)c1OC [Example 56],
,,[2H]C([2H])([2H])NC(=O)c1nnc(NC(=O)C2CC2)cc1Nc1cccc(-c2ncn(CC)n2)c1OC [Example 174],"IC50 ([1]; Homo sapiens, KIT225, read-out: IL-23 Kit225 Reporter (IC50, nM)): 20 nM; IC50 ([3]; Homo sapiens, KIT225, read-out: IFNα Kit225 Reporter (IC50, nM)): 6.97 nM"
,,[2H]C([2H])([2H])NC(=O)c1nnc(Nc2cc(C)c(F)cn2)cc1Nc1ccccc1S(C)(=O)=O [Example 1],"IC50 [1, 6]: 30 nM; IC50 [3, 7]: 20 nM"
30 nM,20 nM,CNC(=O)c1nnc(Nc2ccncn2)cc1Nc1cccc(-c2ncccn2)c1OC [Example 118],
140 nM,80 nM,CNC(=O)c1nnc(Nc2ccc(N3CCOCC3)cn2)cc1Nc1ccccc1S(C)(=O)=O [Example 29],
110 nM,80 nM,CNC(=O)c1nnc(NC(=O)C2CC2)cc1Nc1cccc(-c2cn(C)cn2)c1OC [Example 159],
8.03 nM,3.81 nM,CNC(=O)c1nnc(Nc2cc(OC)ccn2)cc1Nc1cccc(-c2ncn(C)n2)c1OC [Example 133],
10 nM,3.38 nM,CNC(=O)c1nnc(Nc2cc(C)n(C)n2)cc1Nc1cccc(-c2ncn(C)n2)c1OC [Example 60],
,,[2H]C([2H])([2H])NC(=O)c1nnc(NC(=O)C2CC2)cc1Nc1cccc(-c2ccn(CC(C)(C)O)n2)c1OC [Example 196],"IC50 [1, 6]: 70 nM; IC50 [3, 7]: 160 nM"
100 nM,70 nM,CNC(=O)c1nnc(NC(=O)C2CC2)cc1Nc1cccc(-c2ncn(C)n2)c1OC [Example 67],
,,[2H]C([2H])([2H])NC(=O)c1nnc(NC(=O)C2CC2)cc1Nc1cccc(-c2cn[nH]c2)c1OC [Example 185],"IC50 [1, 6]: 280 nM; IC50 [3, 7]: 120 nM"
80 nM,120 nM,CNC(=O)c1nnc(Nc2cc(COC)nc(C)n2)cc1Nc1ccccc1S(C)(=O)=O [Example 40],

"IC50 [1, 4]","IC50 [3, 5]",Compound,other results
20 nM,4.13 nM,COc1c(Nc2cc(NC(=O)C3CC3)nnc2C(N)=O)cccc1-c1ncn(C)n1 [Example 201],
,,CNC(=O)c1nnc(Nc2ccccn2)cc1Nc1cccc(-c2noc(C)n2)c1OC [Example 206],"IC50 [1, 6]: 4.38 nM; IC50 [3, 7]: 0.712 nM"
40 nM,50 nM,CNC(=O)c1nnc(Nc2cc(C)n(C)n2)cc1Nc1cccc(-c2nc(C)cs2)c1OC [Example 100],
30 nM,40 nM,CNC(=O)c1nnc(Nc2cc(C)n(C)n2)cc1Nc1cccc(-c2c[nH]nn2)c1OC [Example 193],
20 nM,9.97 nM,CNC(=O)c1nnc(Nc2cc(OC)ncn2)cc1Nc1cccc(-c2ncn(C)n2)c1OC [Example 88],
80 nM,20 nM,CNC(=O)c1nnc(Nc2cc(CO)ccn2)cc1Nc1cccc(-c2ncn(C)n2)c1OC [Example 110],
,,"CNC(=O)c1nnc(Nc2ccccn2)cc1Nc1cccc(-c2nnc[nH]2)c1SC [Example 204, N-methyl-4-((2-(methylthio)-3-(4H-1,2,4-triazol-3-yl)phenyl)amino)-6-(pyridin-2-ylamino)pyridazine-3-carboxamide]","IC50 [1, 6]: 70 nM; IC50 [3, 7]: 20 nM"
170 nM,100 nM,CNC(=O)c1nnc(Nc2cc(OC)ccn2)cc1Nc1ccccc1S(C)(=O)=O [Example 38],
310 nM,490 nM,CNC(=O)c1nnc(Nc2cc(C(C)(C)O)ccn2)cc1Nc1ccccc1S(C)(=O)=O [Example 50],
30 nM,30 nM,CNC(=O)c1nnc(NC(=O)C2CC2)cc1Nc1cccc(-c2cn(C)nn2)c1OC [Example 138],
,,"[2H]C([2H])([2H])NC(=O)c1nnc(Nc2ccccn2)cc1Nc1cccc(-c2nc(C)no2)c1OC [Example 163, 4-((2-methoxy-3-(3-methyl-1,2,4-oxadiazol-5-yl)phenyl)amino)-N-trideutero-methyl-6-(pyridin-2-ylamino)pyridazine-3-carboxamide]","IC50 [1, 6]: 40 nM; IC50 [3, 7]: 30 nM"
290 nM,260 nM,CNC(=O)c1nnc(Nc2cc(C)c(F)cn2)cc1Nc1cccc(-c2ccnn2C)c1OC [Example 197],
20 nM,20 nM,CNC(=O)c1nnc(Nc2cc(C)n(C)n2)cc1Nc1cccc(-c2cscn2)c1OC [Example 131],
330 nM,110 nM,CNC(=O)c1nnc(Nc2cc(C(C)O)ccn2)cc1Nc1ccccc1S(C)(=O)=O (stereo not shown) [Example 48],
20 nM,8.59 nM,CNC(=O)c1nnc(Nc2ccccn2)cc1Nc1cccc(-c2ccn(C)n2)c1OC [Example 58],
30 nM,9.16 nM,CNC(=O)c1nnc(Nc2cc(OC(C)C)ncn2)cc1Nc1cccc(-c2ncn(C)n2)c1OC [Example 98],
150 nM,30 nM,CNC(=O)c1nnc(Nc2cc(C)nc(C)n2)cc1Nc1cccc(-c2nnc(C)o2)c1OC [Example 153],
60 nM,20 nM,CNC(=O)c1nnc(Nc2cc(C)c(F)cn2)cc1Nc1cccc(-c2ncnn2C)c1OC [Example 180],
270 nM,210 nM,CNC(=O)c1nnc(Nc2ccccn2)cc1Nc1cccc(C(=O)NCC(C)(C)O)c1OC [Example 166],
,,[2H]C([2H])([2H])NC(=O)c1nnc(NC(=O)C2CC2)cc1Nc1cccc(-c2c[nH]nn2)c1OC [Example 192],"IC50 [1, 6]: 40 nM; IC50 [3, 7]: 30 nM"
100 nM,80 nM,CNC(=O)c1nnc(Nc2ccccn2)cc1Nc1cccc(C(=O)NCCC(C)(C)O)c1OC [Example 168],
30 nM,20 nM,CNC(=O)c1nnc(Nc2cc(OC(C)C)nc(C)n2)cc1Nc1cccc(-c2ncn(C)n2)c1OC [Example 62],
,,"[2H]C([2H])([2H])NC(=O)c1nnc(NC(=O)C2CC2)cc1Nc1cccc(C#N)c1OC [Example 202, 4-((3-cyano-2-methoxyphenyl)amino)-6-(cyclopropanecarboxamido)-N-trideuteromethylpyridazine-3-carboxamide]","IC50 [1, 6]: 290 nM; IC50 [3, 7]: 330 nM"
10 nM,20 nM,CS(=O)(=O)c1ccccc1Nc1cc(Nc2ccccn2)nnc1C(N)=O [Example 27],

Compound,"IC50 [1, 4]","IC50 [3, 5]",other results
CNC(=O)c1nnc(Nc2cc(C)c(C)cn2)cc1Nc1ccccc1S(C)(=O)=O [Example 20],20 nM,20 nM,
CNC(=O)c1nnc(Nc2cc(C)n(C)n2)cc1Nc1ccccc1S(C)(=O)=O [Example 24],60 nM,50 nM,

# — patent US11021475B2, “Amide-substituted heterocyclic compounds useful as modulators of IL-12, IL-23 and/or IFN alpha responses” (Bristol-Myers Squibb Company, priority 2012, dated 2021)
